In patent US9422293B2 (priority 2006, dated 2016):
Where a name gives a salt, the structure may show the parent alone.

Target: rat TRPV1 (Rattus norvegicus (Rat), UniProt O35433)
Conditions: read-out: Rat IC50

rat TRPV1, sequence (O35433 whole entry): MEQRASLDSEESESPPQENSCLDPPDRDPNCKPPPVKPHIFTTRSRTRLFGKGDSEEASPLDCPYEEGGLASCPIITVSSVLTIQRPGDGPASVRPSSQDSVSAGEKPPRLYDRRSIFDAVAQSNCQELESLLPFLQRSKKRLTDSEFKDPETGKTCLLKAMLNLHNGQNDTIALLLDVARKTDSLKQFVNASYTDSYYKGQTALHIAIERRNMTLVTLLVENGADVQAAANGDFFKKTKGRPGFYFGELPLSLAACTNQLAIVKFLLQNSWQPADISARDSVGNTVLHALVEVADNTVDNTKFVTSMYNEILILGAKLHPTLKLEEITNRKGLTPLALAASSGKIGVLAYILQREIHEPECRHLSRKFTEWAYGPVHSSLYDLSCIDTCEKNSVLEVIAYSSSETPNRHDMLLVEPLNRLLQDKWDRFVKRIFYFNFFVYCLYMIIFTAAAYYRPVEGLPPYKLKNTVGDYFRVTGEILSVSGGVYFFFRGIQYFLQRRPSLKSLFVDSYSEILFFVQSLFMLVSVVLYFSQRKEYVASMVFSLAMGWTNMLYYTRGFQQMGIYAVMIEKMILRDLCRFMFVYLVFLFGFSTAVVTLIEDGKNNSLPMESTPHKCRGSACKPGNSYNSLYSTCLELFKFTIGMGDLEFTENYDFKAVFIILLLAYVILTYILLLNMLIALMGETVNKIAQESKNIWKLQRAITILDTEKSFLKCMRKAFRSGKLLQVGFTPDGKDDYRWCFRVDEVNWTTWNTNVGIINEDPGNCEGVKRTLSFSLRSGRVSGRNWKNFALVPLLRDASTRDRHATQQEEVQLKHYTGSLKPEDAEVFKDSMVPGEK

Compound	IC50
CC(C)c1nc2c(c(Nc3ccc(C(F)(F)F)cn3)n1)CCN(c1ncccc1C(F)(F)F)CC2 [Example 20, [2-Isopropyl-7-(3-trifluoromethyl-pyridin-2-yl)-6,7,8,9-tetrahydro-5H-pyrimido[4,5-d]azepin-4-yl]-(5-trifluoromethyl-pyridin-2-yl)-amine]	32 nM
Fc1cc(Nc2nc(N3CCCCC3)nc3c2CCN(c2ncccc2C(F)(F)F)CC3)ccc1C(F)(F)F [Example 157, N-[3-Fluoro-4-(trifluoromethyl)phenyl]-2-piperidin-1-yl-7-[3-(trifluoromethyl)pyridin-2-yl]-6,7,8,9-tetrahydro-5H-pyrimido[4,5-d]azepin-4-amine]	70 nM
CN1CCN(c2nc3c(c(Nc4ccc(C(F)(F)F)cn4)n2)CCN(c2ncccc2C(F)(F)F)CC3)CC1 [Example 193, 2-(4-Methylpiperazin-1-yl)-7-[3-(trifluoromethyl)pyridin-2-yl]-N-[5-(trifluoromethyl)pyridin-2-yl]-6,7,8,9-tetrahydro-5H-pyrimido[4,5-d]azepin-4-amine]	2110 nM
FC(F)(F)c1ccc(Nc2nc(SC3CCCCC3)nc3c2CCN(c2ncccc2C(F)(F)F)CC3)cc1 [Example 354, 2-(Cyclohexylsulfanyl)-N-[4-(trifluoromethyl)phenyl]-7-[3-(trifluoromethyl)pyridin-2-yl]-6,7,8,9-tetrahydro-5H-pyrimido[4,5-d]azepin-4-amine]	250 nM
Cc1cc(C(F)(F)F)ccc1Nc1nc(Sc2ccccc2)nc2c1CCN(c1ncccc1C(F)(F)F)CC2 [Example 351, N-[2-Methyl-4-(trifluoromethyl)phenyl]-2-(phenylsulfanyl)-7-[3-(trifluoromethyl)pyridin-2-yl]-6,7,8,9-tetrahydro-5H-pyrimido[4,5-d]azepin-4-amine]	750 nM
FC(F)(F)c1ccc(Nc2nc(OC3CCCC3)nc3c2CCN(c2ncccc2C(F)(F)F)CC3)cc1 [Example 337, 2-(Cyclopentyloxy)-N-[4-(trifluoromethyl)phenyl]-7-[3-(trifluoromethyl)pyridin-2-yl]-6,7,8,9-tetrahydro-5H-pyrimido[4,5-d]azepin-4-amine]	170 nM
O=S(=O)(c1ccc(Nc2nc(SC3CCCCC3)nc3c2CCN(c2ncccc2C(F)(F)F)CC3)cc1)C(F)(F)F [Example 360, 2-(Cyclohexylsulfanyl)-7-[3-(trifluoromethyl)pyridin-2-yl]-N-{4-[(trifluoromethyl)sulfonyl]phenyl}-6,7,8,9-tetrahydro-5H-pyrimido[4,5-d]azepin-4-amine]	250 nM
O=S(=O)(c1ccc(Nc2nc(OC3CCCC3)nc3c2CCN(c2ncccc2C(F)(F)F)CC3)cc1)N1CCCC1 [Example 333, 2-(Cyclopentyloxy)-N-[4-(pyrrolidin-1-ylsulfonyl)phenyl]-7-[3-(trifluoromethyl)pyridin-2-yl]-6,7,8,9-tetrahydro-5H-pyrimido[4,5-d]azepin-4-amine]	40 nM
FC(F)(F)c1ccc(Nc2nc(OC3CCOC3)nc3c2CCN(c2ncccc2C(F)(F)F)CC3)cc1 (stereo not shown) [Example 340, 2-(Tetrahydrofuran-3-yloxy)-N-[4-(trifluoromethyl)phenyl]-7-[3-(trifluoromethyl)pyridin-2-yl]-6,7,8,9-tetrahydro-5H-pyrimido[4,5-d]azepin-4-amine]	260 nM
FC(F)(F)c1ccc(Nc2ncnc3c2CCN(c2ncccc2Cl)CC3)cc1 [Example 30, [7-(3-Chloro-pyridin-2-yl)-6,7,8,9-tetrahydro-5H-pyrimido[4,5-d]azepin-4-yl]-(4-trifluoromethyl-phenyl)-amine]	1300 nM
CC(=O)c1ccc(Nc2nc(C(C)C)nc3c2CCN(c2ncccc2C(F)(F)F)CC3)cc1 [Example 96, 1-{4-[2-Isopropyl-7-(3-trifluoromethyl-pyridin-2-yl)-6,7,8,9-tetrahydro-5H-pyrimido[4,5-d]azepin-4-ylamino]-phenyl}-ethanone]	340 nM
Cc1cncnc1N1CCc2ncnc(Nc3ccc(C(C)(C)C)cc3)c2CC1 [Example 38, (4-tert-Butyl-phenyl)-[7-(5-methyl-pyrimidin-4-yl)-6,7,8,9-tetrahydro-5H-pyrimido[4,5-d]azepin-4-yl]-amine]	1400 nM
FC(F)(F)c1ccc(Nc2nc(N3CCC3)nc3c2CCN(c2ncccc2C(F)(F)F)CC3)cc1 [Example 56B, [2-Azetidin-1-yl-7-(3-trifluoromethyl-pyridin-2-yl)-6,7,8,9-tetrahydro-5H-pyrimido[4,5-d]azepin-4-yl]-(4-trifluoromethyl-phenyl)-amine trifluoroacetic acid salt]	64 nM
CC(C)c1nc2c(c(Nc3ccc(C(F)(F)F)cc3)n1)CCN(c1ncccc1NS(C)(=O)=O)CC2 [Example 281, N-{2-[2-(1-Methylethyl)-4-{[4-(trifluoromethyl)phenyl]amino}-5,6,8,9-tetrahydro-7H-pyrimido[4,5-d]azepin-7-yl]pyridin-3-yl}methanesulfonamide]	2620 nM
CSc1nc2c(c(Nc3ccc(C(F)(F)F)nc3)n1)CCN(c1ncccc1C(F)(F)F)CC2 [Example 75B, [2-Methylsulfanyl-7-(3-trifluoromethyl-pyridin-2-yl)-6,7,8,9-tetrahydro-5H-pyrimido[4,5-d]azepin-4-yl]-(6-trifluoromethyl-pyridin-3-yl)-amine trifluoroacetic acid salt]	40 nM
CC(C)c1nc2c(c(Nc3ccc(C(F)(F)F)cc3)n1)CCN(c1ncc([N+](=O)[O-])cc1C(F)(F)F)CC2 [Example 291, 2-(1-Methylethyl)-7-[5-nitro-3-(trifluoromethyl)pyridin-2-yl]-N-[4-(trifluoromethyl)phenyl]-6,7,8,9-tetrahydro-5H-pyrimido[4,5-d]azepin-4-amine]	170 nM
CC(Oc1nc2c(c(Nc3ccc(S(=O)(=O)N4CCCC4)cc3)n1)CCN(c1ncccc1C(F)(F)F)CC2)C1CCCCC1 (stereo not drawn) [Example 320, 2-[(1-Cyclohexylethyl)oxy]l-N-[4-(pyrrolidin-1-ylsulfonyl)phenyl]-7-[3-(trifluoromethyl)pyridin-2-yl]-6,7,8,9-tetrahydro-5H-pyrimido[4,5-d]azepin-4-amine]	20 nM
FC(F)(F)c1ccc(Nc2nc(N3CCOCC3)nc3c2CCN(c2ncccc2C(F)(F)F)CC3)cc1Cl [Example 381, (3-Chloro-4-trifluoromethyl-phenyl)-[2-morpholin-4-yl-7-(3-trifluoromethyl-pyridin-2-yl)-6,7,8,9-tetrahydro-5H-pyrimido[4,5-d]azepin-4-yl]-amine]	40 nM
CC(C)c1nc2c(c(NCCc3c(Cl)cccc3Cl)n1)CCN(c1ncccc1C(F)(F)F)CC2 [Example 125, N-[2-(2,6-Dichlorophenyl)ethyl]-2-(1-methylethyl)-7-[3-(trifluoromethyl)pyridin-2-yl]-6,7,8,9-tetrahydro-5H-pyrimido[4,5-d]azepin-4-amine]	610 nM
O=S(=O)(c1ccc(Nc2nc(OC3CCOC3)nc3c2CCN(c2ncccc2C(F)(F)F)CC3)cc1)C(F)(F)F (stereo not shown) [Example 331, 2-(Tetrahydrofuran-3-yloxy)-7-[3-(trifluoromethyl)pyridin-2-yl]-N-{4-[(trifluoromethyl)sulfonyl]phenyl}-6,7,8,9-tetrahydro-5H-pyrimido[4,5-d]azepin-4-amine]	500 nM
Fc1cccnc1N1CCc2ncnc(Nc3ccc(C(F)(F)F)cc3)c2CC1 [Example 295, 7-(3-Fluoropyridin-2-yl)-N-[4-(trifluoromethyl)phenyl]-6,7,8,9-tetrahydro-5H-pyrimido[4,5-d]azepin-4-amine]	10400 nM
FC(F)(F)c1ccc(Nc2nc(-c3ccccn3)nc3c2CCN(c2ncccc2C(F)(F)F)CC3)cc1Cl [Example 173, N-[3-Chloro-4-(trifluoromethyl)phenyl]-2-pyridin-2-yl-7-[3-(trifluoromethyl)pyridin-2-yl]-6,7,8,9-tetrahydro-5H-pyrimido[4,5-d]azepin-4-amine trifluoroacetic acid salt]	210 nM
NS(=O)(=O)c1cccnc1N1CCc2ncnc(Nc3ccc(C(F)(F)F)cc3)c2CC1 [Example 302, 2-(4-{[4-(Trifluoromethyl)phenyl]amino}-5,6,7,8,9-tetrahydro-7H-pyrimido[4,5-d]azepin-7-yl)pyridine-3-sulfonamide]	9460 nM
O=S(=O)(c1ccc(Nc2nc(Sc3ccccc3)nc3c2CCN(c2ncccc2C(F)(F)F)CC3)cc1)C(F)(F)F [Example 350, 2-(Phenylsulfanyl)-7-[3-(trifluoromethyl)pyridin-2-yl]-N-{4-[(trifluoromethyl)sulfonyl]phenyl}-6,7,8,9-tetrahydro-5H-pyrimido[4,5-d]azepin-4-amine]	30 nM
CSc1nc2c(c(Nc3ccc(C(F)(F)F)cn3)n1)CCN(c1ncccc1C(F)(F)F)CC2 [Example 74B, [2-Methylsulfanyl-7-(3-trifluoromethyl-pyridin-2-yl)-6,7,8,9-tetrahydro-5H-pyrimido[4,5-d]azepin-4-yl]-(5-trifluoromethyl-pyridin-2-yl)-amine trifluoroacetic acid salt]	3900 nM
Cc1cc(C(F)(F)F)ccc1Nc1nc(S(C)(=O)=O)nc2c1CCN(c1ncccc1C(F)(F)F)CC2 [Example 209, 2-(Methylsulfonyl)-N-[2-methyl-4-(trifluoromethyl)phenyl]-7-[3-(trifluoromethyl)pyridin-2-yl]-6,7,8,9-tetrahydro-5H-pyrimido[4,5-d]azepin-4-amine]	3450 nM
COC(=O)c1ccc(Nc2nc(N3CCCCC3)nc3c2CCN(c2ncccc2C(F)(F)F)CC3)cc1F [Example 385, 2-Fluoro-4-[2-piperidin-1-yl-7-(3-trifluoromethyl-pyridin-2-yl)-6,7,8,9-tetrahydro-5H-pyrimido[4,5-d]azepin-4-ylamino]-benzoic acid methyl ester]	820 nM
CN(C)c1ccc(Nc2nc(N(C)C)nc3c2CCN(c2ncccc2C(F)(F)F)CC3)cc1 [Example 79B, N^4-(4-Dimethylamino-phenyl)-N^2,N^2-dimethyl-7-(3-trifluoromethyl-pyridin-2-yl)-6,7,8,9-tetrahydro-5H-pyrimido[4,5-d]azepine-2,4-diamine trifluoroacetic acid salt]	1300 nM
